Experimental data from US8501722B2, “Methods and compositions for treating bacterial infection” (priority 2009, dated 2013).
“And” between values parts separate entries of the source, which are not always exact repeats. Identical values can stand only once. Like-named read-outs stand apart in the source and are kept apart here.

Experiments:
SK(+)GAS = test: GAS growth by OD600 nm of culture; assay type: cell-based, Group A Streptococcus; settings: Streptococcus; for activity at 0.1 µg/mL: read-out: GAS Growth (% control), compound conc. 0.1 μg/ml; for activity at 0.3 µg/mL: read-out: GAS Growth (% control), compound conc. 0.3 μg/ml; for activity at 5 µg/mL: read-out: GAS Growth (% control), compound conc. 5 μg/ml; for activity at 20 µg/mL: read-out: GAS Growth (% control), compound conc. 20 μg/ml; for activity at 40 µg/mL: read-out: GAS Growth (% control), compound conc. 40 μg/ml
SK(+)GAS (UMAA2616) = test: Survival of human plasminogen transgenic (Tg+) mice infected with GAS; assay type: in vivo; settings: UMAA2616 infection; 575096 5 μg per day, 1S-22207 30 μg per day, intraperitoneally daily for 5 days, starting one day after infection
Experimental: To examine the in vivo efficacy of compounds CCGC, CCGE, and CCGF, Tg+ mice were first infected with 6*10^5 CFU SK(+)GAS, then injected with 5 μg of test compound per mouse intraperitoneally daily for 5 days, starting one day after infection. […] In some embodiments, small compound are delivered continuously through an ALZET® Osmotic Pump (DURECT Corporation, Cupertino, Calif.).
Tg+ mice are then used to test the efficacy of compounds in attenuating the virulence of GAS infection. 20 Tg+ mice are infected with 10^5 CFU of SK(+)GAS then injected with the estimated experimental doses of the compounds two hours later. Survival is monitored for 9 days, while a control group of Tg+ mice will be infected with SK(+)GAS injected with DMSO. The comparison of mortalities between the two groups is analyzed as described above in the toxicity test. Treating mice with compound post-infection helps avoid potential side-effects of toxic or growth inhibition of compound on SK(+)GAS at the time of infection. As a result, the effect of compound on mice survival is a more authentic reflection of the efficacy of compound on inhibiting GAS virulence. Possible scenarios include:
This example describes the in vivo efficacy of compound 575096. Human plasminogen transgenic mice (Tg+) were first infected with 10^5″^6 CFUUMAA2616, then injected with 5-30 lag of test compound per mouse intraperitoneally daily for 5 days, starting one day after infection.

Experimental for streptokinase (SK): SK− Ecoli and SKCtr1's dose response relationship with these compounds were then examined.
The effects of 10 hit compounds out of the 23 identified were further tested by dose response assays. […] These compounds were tested for inhibition of ska expression by measuring SK activity in supernatants of GAS exposed to the test compound or control vehicle alone (DMSO). SK(+)GAS were cultured with hit compounds at a dose range of 10 nM to 100 μM at 37° C. for 16-20 hours. Supernatants of SK(+)GAS cultures were measured for SK activity using chromogenic substrate 2403 (Diapharma group Inc., West Chester, Ohio), according to the manufacturer's instruction and simultaneously monitored for nonspecific effects on GAS growth by measuring OD600 nm.
The positive compounds identified in dose response assays are subjected to SK assay to identify compounds inhibiting SK expression in SK(+)GAS. Briefly, SK(+)GAS is grown at the presence of hit compounds at a dose range determined by dose response assays within which SK(−) GAS growth is inhibited less than 10% while SKKanGAS growth is inhibited more than 50% under 20 μg/ml kanamycin.

SMILES: C=CCn1c(SCCCC)nc2c(c1=O)C1(CCCCC1)Cc1ccccc1-2 [compound 575096]
- activity at 0.1 µg/mL (SK(+)GAS): 97%
- activity at 0.3 µg/mL (SK(+)GAS): 102%
- activity at 1 µg/mL (SK(+)GAS; read-out: GAS Growth (% control), compound conc. 1 μg/ml): 102%
- activity at 3 µg/mL (SK(+)GAS; read-out: GAS Growth (% control), compound conc. 3 μg/ml): 100%
- activity at 5 µg/mL (SK(+)GAS): 101%
- activity at 10 µg/mL (SK(+)GAS; read-out: GAS Growth (% control), compound conc. 10 μg/ml): 102%
- activity at 20 µg/mL (SK(+)GAS): 84%
- SK Expression (% control) (streptokinase (SK); compound conc. 0.1 μg/ml): 77 % control and 83 % control and 95 % control
- SK Expression (% control) (streptokinase (SK); compound conc. 0.3 μg/ml): 108 % control and 95 % control and 127 % control
- SK Expression (% control) (streptokinase (SK); compound conc. 1.0 μg/ml): 65 % control and 69 % control and 84 % control
- SK Expression (% control) (streptokinase (SK); compound conc. 3 μg/ml): 61 % control and 62 % control and 69 % control
- SK Expression (% control) (streptokinase (SK); compound conc. 5 μg/ml): 50 % control
- SK Expression (% control) (streptokinase (SK); compound conc. 40 μg/ml): 68 % control and 51 % control and 69 % control and 76 % control
- SK Expression (% control) (streptokinase (SK); compound conc. 50 μg/ml): 65 % control and 66 % control and 83 % control
- SK Expression (% control) (streptokinase (SK); compound conc. 70 μg/ml): 40 % control and 61 % control
- survival of Tg+ mice compared to DMSO control group (SK(+)GAS (UMAA2616)): significant improvement in survival

SMILES: C=CCn1c(SCCc2ccc(OC)cc2)nc2c(c1=O)C1(CCCCC1)Cc1ccccc1-2 [CCG-102489, 3-allyl-2-(4-methoxyphenethylthio)-3H-spiro[benzo[h]quinazoline-5,1′-cyclohexan]-4(6H)-one]
- activity at 5 µg/mL (SK(+)GAS): 106%
- activity at 40 µg/mL (SK(+)GAS): 114%
- SK Expression (% control) (streptokinase (SK); compound conc. 5 μg/ml): 91 % control
- SK Expression (% control) (streptokinase (SK); compound conc. 40 μg/ml): 79 % control

SMILES: C=CCn1c(NCC)nc2c(c1=O)C1(CCCCC1)Cc1ccccc1-2 [CCG-203043, 3-allyl-2-(ethylamino)-3H-spiro[benzo[h]quinazoline-5,1′-cyclohexan]-4(6H)-one]
- activity at 0.1 µg/mL (SK(+)GAS): 101%
- activity at 0.3 µg/mL (SK(+)GAS): 104%
- activity at 2.5 µg/mL (SK(+)GAS; read-out: GAS Growth (% control), compound conc. 2.5 μg/ml): 106%
- activity at 5 µg/mL (SK(+)GAS): 116%
- activity at 20 µg/mL (SK(+)GAS): 113%
- activity at 40 µg/mL (SK(+)GAS): 115%
- activity at 70 µg/mL (SK(+)GAS; read-out: GAS Growth (% control), compound conc. 70 μg/ml): 124%
- SK Expression (% control) (streptokinase (SK); compound conc. 0.1 μg/ml): 96 % control
- SK Expression (% control) (streptokinase (SK); compound conc. 0.3 μg/ml): 96 % control
- SK Expression (% control) (streptokinase (SK); compound conc. 1.0 μg/ml): 94 % control
- SK Expression (% control) (streptokinase (SK); compound conc. 3 μg/ml): 62 % control
- SK Expression (% control) (streptokinase (SK); compound conc. 10 μg/ml): 41 % control
- SK Expression (% control) (streptokinase (SK); compound conc. 30 μg/ml): 32 % control
- SK Expression (% control) (streptokinase (SK); compound conc. 60 μg/ml): 24 % control

SMILES: C=CCn1c(SCc2ccc(OC)cc2)nc2c(c1=O)C1(CCCCC1)Cc1ccccc1-2 [CCG-102483, 3-allyl-2-(4-methoxybenzylthio)-3H-spiro[benzo[h]quinazoline-5,1′-cyclohexan]-4(6H)-one]
- activity at 5 µg/mL (SK(+)GAS): 104%
- activity at 40 µg/mL (SK(+)GAS): 115%
- SK Expression (% control) (streptokinase (SK); compound conc. 5 μg/ml): 119 % control
- SK Expression (% control) (streptokinase (SK); compound conc. 40 μg/ml): 80 % control

SMILES: C=CCn1c(SCc2ccc(NC(C)=O)cc2)nc2c(c1=O)C1(CCCCC1)Cc1ccccc1-2 [CCG-102491, N-(4-((3-allyl-4-oxo-4,6-dihydro-3H-spiro[benzo[h]quinazoline-5,1′-cyclohexane]-2-ylthio)methyl)phenyl)acetamide]
- activity at 5 µg/mL (SK(+)GAS): 109%
- activity at 40 µg/mL (SK(+)GAS): 112%
- SK Expression (% control) (streptokinase (SK); compound conc. 5 μg/ml): 85 % control
- SK Expression (% control) (streptokinase (SK); compound conc. 40 μg/ml): 96 % control
